Earlier results, collected in US20210213093A1, “COMPOSITIONS AND METHODS FOR ACTIVATING CELLULAR SIGNALING PATHWAYS” (LifeVantage Corporation, priority 2020, published 2021).

Details: background statement, no test described

For O=C(O)CCCC[C@@H]1CCSS1 (racemic) [Lipoic acid, lipoic acid], the “antioxidant power relative to vitamin E and vitamin C combined” value is given as 400 times.
